Assay results reported in patent publication US9169315B2, “Heparin cofactor II fragments with anti-inflammatory and anti-coagulant activity” (XIMMUNE AB, priority 2009, dated 2015).
No end group written: not given here.

Columns and labels:
[1] = system: Escherichia coli, Pseudomonas aeruginosa, Bacillus subtilis, Staphylococcus aureus, Candida albicans, Candida parapsilosis; experiment: Radial diffusion assay (RDA); assay type: cell-based; conditions: peptide at 100 μM; compared with LL-37
Description: Essentially as described earlier, bacteria were grown to mid-logarithmic phase in 10 ml of full-strength (3% w/v) trypticase soy broth (TSB) (Becton-Dickinson). The microorganisms were then washed once with 10 mM Tris, pH 7.4. Subsequently, 4×10^6 cfu were added to 15 ml of the underlay agarose gel, consisting of 0.03% (w/v) TSB, 1% (w/v) low electroendosmosis type (EEO) agarose (Sigma-Aldrich) and 0.02% (v/v) Tween 20 (Sigma-Aldrich). The underlay was poured into a Ø 144 mm petri dish. After agarose solidification, 4 mm-diameter wells were punched and 6 μl peptide solution of required concentration added to each well. Plates were incubated at 37° C. for 3 h to allow peptide diffusion. The underlay gel was then covered with 15 ml of molten overlay (6% TSB and 1% Low-EEO agarose in distilled H2O). Antimicrobial activity of a peptide was visualized as a zone of clearing around each well after 18-24 h of incubation at 37° C.
Essentially as described earlier (Lehrer, Rosenman et al. 1991; Andersson, Rydengård et al. 2004), bacteria were grown to mid-logarithmic phase in 10 ml of full-strength (3% w/v) trypticase soy broth. (TSB) (Becton-Dickinson). The microorganisms were then washed once with 10 mM Tris, pH 7.4. Subsequently, 4×10^6 cfu were added to 15 ml of the underlay agarose gel, consisting of 0.03% (w/v) TSB, 1% (w/v) low electroendosmosis type (EEO) agarose (Sigma-Aldrich) and 0.02% (v/v) Tween 20 (Sigma-Aldrich). The underlay was poured into a Ø 144 mm petri dish. After agarose solidification, 4 mm-diameter wells were punched and 6 μl peptide solution of required concentration added to each well. Plates were incubated at 37° C. for 3 h to allow peptide diffusion. The underlay gel was then covered with 15 ml of molten overlay (6% TSB and 1% Low-EEO agarose in distilled H2O). Antimicrobial activity of a peptide was visualized as a zone of clearing around each well after 18-24 h of incubation at 37° C. […]

[2] = system: E. coli, P. aeruginosa and S. aureus; experiment: Viable count assay; assay type: cell-based; conditions: for Time within which bacterial killing occurred: 30 μM, pH 7.4, 20% plasma; for Time within which bacterial killing occurred / Antibacterial activity in viable count assays: 0.15 M NaCl, 10 mM Tris; for Antibacterial activity in viable count assays: with or without 20% human citrate plasma
Description: E. coli ATCC 25922 bacteria were grown to mid-logarithmic phase in Todd-Hewitt (TH) medium. Bacteria were washed and diluted in 10 mM Tris, pH 7.4 containing 5 mM glucose. E. coli ATCC 25922 ([…]; 2×10^6 cfu/ml) were incubated, at 37° C. for 2 h with peptides at the indicated concentrations. Other experiments with the TFPI-peptides and LL-37 were performed in 10 mM Tris, pH 7.4, containing also 0.15 M NaCl, with normal or heat inactivated 20% citrate-plasma (PP). Serial dilutions of the incubation mixture were plated on TH agar, followed by incubation at 37° C. overnight and cfu determination.
(§1) E. coli ATCC 25922, P. aeruginosa 15159, or S. aureus ATCC 29213 bacteria were grown to mid-logarithmic phase in Todd-Hewitt (TH) medium (Becton and Dickinson, Maryland, USA). The microorganisms were then washed and diluted in 10 mM Tris, pH 7.4 containing 5 mM glucose. Following this, bacteria (50 μl; 2×10^6 cfu/ml) were incubated, at 37° C. for 2 hours, with KYE28, KYE21 or LL-37 (at 0.03, 0.06, 0.3, 0.6, 3, 6, 30, 60 μM) in 10 mM Tris, 0.15 M NaCl, with or without 20% human citrate-plasma. To quantify the bactericidal activity, serial dilutions of the incubation mixtures were plated on TH agar, followed by incubation at 37° C. overnight and the number of colony-forming units was determined. 100% survival was defined as total survival of bacteria in the same buffer and under the same condition in the absence of peptide. Significance was determined using the statistical software SigmaStat (SPSS Inc., Chicago, Ill., USA).
as §1, with “NLF20” for “KYE28, KYE21”, “citrate-plasma. In the experiments using 50% whole blood, S. aureus ATCC 29213 and P. aeruginosa ATCC 27853 bacteria (50 μl; 2×10^8 cfu/ml) were incubated at 37° C. for 1 hour in the presence of peptide at 60 (for P. aeruginosa) and 120 μM (P. aeruginosa and S. aureus).” for “citrate-plasma.”

Row | Sequence | Antimicrobial activity in RDA (zones of clearance) [1] | Time within which bacterial killing occurred [2] [min] | Antibacterial activity in viable count assays [2] | Antibacterial activity in presence of human citrated plasma (viable count) ([2]; 20% human citrate plasma vs buffer)
1 | NLFRKLTHRLFRRNFGYTLR [NLF20] | well exceeded those observed for | 5 to 20 | displays significant antibacterial activity | retained, and for E. coli and S. aureus, even enhanced
2 | KYEITTIHNLFRKLTHRLFRRNFGYTLR [KYE28] | activities were similar to those observed for | 5 to 20 | significant antibacterial activity | 
3 | KYEITTIHNLFRKLTHRLFRR [KYE21] | activities were similar to those observed for |  | significant antibacterial activity | 
